Key:
NK-YS (IL-2 2.5 ng/mL) [1] = assay: drug sensitivity score (DSS) (DSS units); higher = more sensitive; extreme values may be limits of the assay; conditions: 72 h
[2] = test system: normal primary NK cells, pool 2 (3 donors) (IL-2 2.5 ng/mL); assay: as above; conditions: 72 h
[3] = test system: normal primary NK cells, pool 3 (3 donors) (IL-2 2.5 ng/mL); assay: as above; conditions: 72 h
KAI3 (IL-2 2.5 ng/mL) [4] = assay: as above; conditions: 72 h
YT (IL-2 2.5 ng/mL) [5] = assay: as above; conditions: 72 h
NKL (IL-2 2.5 ng/mL) [6] = assay: as above; conditions: 72 h
NK-92 (IL-2 2.5 ng/mL) [7] = assay: as above; conditions: 72 h
SNK-6 (IL-2 2.5 ng/mL) [8] = assay: as above; conditions: 72 h
IMC-1 (IL-2 20 ng/mL) [9] = assay: as above; conditions: 72 h
DERL-7 (IL-2 2.5 ng/mL) [10] = assay: as above; conditions: 72 h
KHYG-1 (IL-2 2.5 ng/mL) [11] = assay: as above; conditions: 72 h
[12] = test system: normal primary NK cells, pool 1 (3 donors) (IL-2 2.5 ng/mL); assay: as above; conditions: 72 h
[13] = test system: normal primary NK cells, pool 1 (3 donors), resting (IL-2 0 ng/mL); assay: as above; conditions: 72 h
NK-YS (IL-2 2.5 ng/mL) [14] = assay: percent inhibition of viability; higher = more inhibition; conditions: 72 h
[15] = test system: normal primary NK cells, pool 2 (3 donors) (IL-2 2.5 ng/mL); assay: as above; conditions: 72 h
[16] = test system: normal primary NK cells, pool 3 (3 donors) (IL-2 2.5 ng/mL); assay: as above; conditions: 72 h
KAI3 (IL-2 2.5 ng/mL) [17] = assay: as above; conditions: 72 h
YT (IL-2 2.5 ng/mL) [18] = assay: as above; conditions: 72 h
NKL (IL-2 2.5 ng/mL) [19] = assay: as above; conditions: 72 h
NK-92 (IL-2 2.5 ng/mL) [20] = assay: as above; conditions: 72 h
SNK-6 (IL-2 2.5 ng/mL) [21] = assay: as above; conditions: 72 h
IMC-1 (IL-2 20 ng/mL) [22] = assay: as above; conditions: 72 h
DERL-7 (IL-2 2.5 ng/mL) [23] = assay: as above; conditions: 72 h
KHYG-1 (IL-2 2.5 ng/mL) [24] = assay: as above; conditions: 72 h
[25] = test system: normal primary NK cells, pool 1 (3 donors) (IL-2 2.5 ng/mL); assay: as above; conditions: 72 h
[26] = test system: normal primary NK cells, pool 1 (3 donors), resting (IL-2 0 ng/mL); assay: as above; conditions: 72 h
[27] = test system: normal NK cells expanded with K562-aAPC; assay: drug sensitivity score (DSS) (DSS units); higher = more sensitive; extreme values may be limits of the assay; conditions: 72 h; IL-2 2.5 ng/mL
Protocol: (§1)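 Drug sensitivity and resistance testing on K562-aAPC-expanded normal NK cells: 5 concentrations (10-fold steps over a 10,000-fold range), 72 h at 37 °C, viability by CellTiter-Glo normalised to DMSO and benzethonium chloride controls; DSS from the fitted curve.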

[28] = test system: normal NK cells expanded with K562-aAPC; assay: percent inhibition of viability; higher = more inhibition; conditions: 72 h, IL-2 2.5 ng/mL
Protocol: as §1

O=C1NC(=O)[C@@H](c2cn3c4c(cccc24)CCC3)[C@@H]1c1c[nH]c2ccccc12 [Tivantinib] (max concentration tested 1000 nM)
Conditions | drug sensitivity score
DERL-7 (IL-2 2.5 ng/mL) [10] | 5.07
IMC-1 (IL-2 20 ng/mL) [9] | 5.57
KAI3 (IL-2 2.5 ng/mL) [4] | 4.63
KHYG-1 (IL-2 2.5 ng/mL) [11] | 7.4
NK-92 (IL-2 2.5 ng/mL) [7] | 10.4
NK-YS (IL-2 2.5 ng/mL) [1] | 7.74
NKL (IL-2 2.5 ng/mL) [6] | 4.03
SNK-6 (IL-2 2.5 ng/mL) [8] | 12.9
YT (IL-2 2.5 ng/mL) [5] | 6.61
[2] | 2.26
[3] | 1
[12] | 0
[13] | 0
[27] | 4.27

percent inhibition of viability [%]
Conditions | 0.1 nM | 1 nM | 10 nM | 100 nM | 1000 nM
DERL-7 (IL-2 2.5 ng/mL) [23] | 1.35 | 4.31 | 5.17 | -5.73 | 98.9
IMC-1 (IL-2 20 ng/mL) [22] | -2.06 | -7.71 | 1.1 | 0.97 | 97.6
KAI3 (IL-2 2.5 ng/mL) [17] | -4.06 | 0.6 | 3.77 | 11.4 | 52.4
KHYG-1 (IL-2 2.5 ng/mL) [24] | 0.89 | -0.35 | 5.11 | 11.5 | 99.1
NK-92 (IL-2 2.5 ng/mL) [20] | -9.63 | -0.01 | -3.88 | 39 | 94.7
NK-YS (IL-2 2.5 ng/mL) [14] | 0.78 | -2.63 | 4.33 | 31.1 | 73.6
NKL (IL-2 2.5 ng/mL) [19] | -20.3 | -13.1 | -9.15 | -9.89 | 84.3
SNK-6 (IL-2 2.5 ng/mL) [21] | 9.19 | 0.24 | 0.91 | 70.4 | 83.3
YT (IL-2 2.5 ng/mL) [18] | -0.05 | -2.14 | 2.38 | 8.83 | 93.5
[15] | -7.65 | -12.3 | -6.73 | 13.4 | 23.2
[16] | -12.8 | -3.79 | -11.9 | 5.81 | 17.4
[25] | -0.92 | 0.64 | -7.52 | -8.4 | 6.83
[26] | -0.8 | 10.8 | 3.09 | 6.28 | 8.64
[28] | 4.66 | 1 | 5.6 | 5.87 | 61

NC(=S)N/N=C/c1ncccc1N [Triapine] (max concentration tested 10000 nM)
Conditions | drug sensitivity score
DERL-7 (IL-2 2.5 ng/mL) [10] | 4.86
IMC-1 (IL-2 20 ng/mL) [9] | 4.69
KAI3 (IL-2 2.5 ng/mL) [4] | 9.5
KHYG-1 (IL-2 2.5 ng/mL) [11] | 13.8
NK-92 (IL-2 2.5 ng/mL) [7] | 12.1
NK-YS (IL-2 2.5 ng/mL) [1] | 9.25
NKL (IL-2 2.5 ng/mL) [6] | 4.61
SNK-6 (IL-2 2.5 ng/mL) [8] | 4.48
YT (IL-2 2.5 ng/mL) [5] | 3.49
[2] | 3.34
[3] | 4.03
[12] | 3.86
[13] | 8.2
[27] | 10.1

percent inhibition of viability [%]
Conditions | 1 nM | 10 nM | 100 nM | 1000 nM | 10000 nM
DERL-7 (IL-2 2.5 ng/mL) [23] | -1.06 | 2.72 | -5.08 | -8.15 | 97.7
IMC-1 (IL-2 20 ng/mL) [22] | -5.06 | 0.28 | -5.51 | -12.1 | 98
KAI3 (IL-2 2.5 ng/mL) [17] | -5.83 | 4.79 | 3.83 | 32.7 | 93.6
KHYG-1 (IL-2 2.5 ng/mL) [24] | -1.53 | -0.9 | -1.65 | 73.7 | 97.9
NK-92 (IL-2 2.5 ng/mL) [20] | -11.5 | -5.21 | -2.75 | 61.1 | 90.6
NK-YS (IL-2 2.5 ng/mL) [14] | -1.66 | -1.59 | -1.57 | 26.8 | 95.1
NKL (IL-2 2.5 ng/mL) [19] | -2.42 | -1.96 | -11.9 | -7.16 | 92.3
SNK-6 (IL-2 2.5 ng/mL) [21] | 4.11 | 13 | 14.7 | -6.98 | 89.7
YT (IL-2 2.5 ng/mL) [18] | 0.85 | 0.16 | -3.39 | -10 | 74.8
[15] | -9.87 | -3.04 | -3.45 | 8.38 | 40
[16] | -6.53 | -8.38 | -5.12 | 15.8 | 38.7
[25] | -6.36 | -11 | -8.82 | 4.76 | 57.7
[26] | -6.48 | -20.7 | -16.6 | 22.7 | 85.8
[28] | -2.67 | -8.24 | -2.71 | 55 | 64.6

O=C(CCCCCCC(=O)Nc1ccc([C@H]2O[C@@H](CSc3nc(-c4ccccc4)c(-c4ccccc4)o3)C[C@@H](c3ccc(CO)cc3)O2)cc1)NO [Tubacin] (max concentration tested 10000 nM)
Conditions | drug sensitivity score
DERL-7 (IL-2 2.5 ng/mL) [10] | 7.93
IMC-1 (IL-2 20 ng/mL) [9] | 6.44
KAI3 (IL-2 2.5 ng/mL) [4] | 6.87
KHYG-1 (IL-2 2.5 ng/mL) [11] | 4.84
NK-92 (IL-2 2.5 ng/mL) [7] | 6.62
NK-YS (IL-2 2.5 ng/mL) [1] | 5.76
NKL (IL-2 2.5 ng/mL) [6] | 8.82
SNK-6 (IL-2 2.5 ng/mL) [8] | 7.71
YT (IL-2 2.5 ng/mL) [5] | 5.78
[2] | 0.95
[3] | 0.27
[12] | 2.14
[13] | 3.59
[27] | 3.3

percent inhibition of viability [%]
Conditions | 1 nM | 10 nM | 100 nM | 1000 nM | 10000 nM
DERL-7 (IL-2 2.5 ng/mL) [23] | -2.36 | 4.2 | 7.74 | 19.8 | 86.6
IMC-1 (IL-2 20 ng/mL) [22] | -1.32 | 0.91 | 3.12 | 6.34 | 99
KAI3 (IL-2 2.5 ng/mL) [17] | -2.25 | -0.51 | -0.15 | 12 | 87.7
KHYG-1 (IL-2 2.5 ng/mL) [24] | -2.84 | -3.16 | 1.24 | 0.88 | 84.9
NK-92 (IL-2 2.5 ng/mL) [20] | -7.58 | 4.48 | 12.8 | 18.2 | 74.3
NK-YS (IL-2 2.5 ng/mL) [14] | -6.18 | -3.18 | -0.57 | 4.16 | 93.2
NKL (IL-2 2.5 ng/mL) [19] | -14.5 | -0.93 | -1.27 | 28.3 | 86.2
SNK-6 (IL-2 2.5 ng/mL) [21] | -5.06 | 2.23 | 22.3 | 16.9 | 89.8
YT (IL-2 2.5 ng/mL) [18] | 0.56 | 0.68 | 3.58 | 5.84 | 88.3
[15] | -4.13 | -4.61 | 0.44 | 0.6 | 24
[16] | -6.56 | -3.63 | 5.33 | -0.47 | 15.8
[25] | 2.38 | 1.13 | 3.02 | -4.6 | 47.5
[26] | -6.72 | -11.8 | 5.02 | -11.8 | 77.7
[28] | -0.3 | 4.86 | 3.67 | 7.82 | 40.4

Source: the supplement of paper PMC5908809
